From US20100029657A1, “Bridged, Bicyclic Heterocyclic or Spiro Bicyclic Heterocyclic Derivatives of Pyrazolo[1, 5-A]Pyrimidines, Methods for Preparation and Uses Thereof” (Wyeth, priority 2008, published 2010)
Counter-ions that a name gives are not always drawn.

Biological target: T1, Flag/GST-tagged recombinant human B-Raf (Homo sapiens, UniProt P15056)
T1 construct: Flag; GST; made in house; host or cells: Sf9 insect cells (B-Raf); E. coli (MEK1-GST)
Experiment: B-Raf kinase assay (phosphorylation of GST-MEK1, phospho-MEK1 antibody/Europium detection)
Format: biochemical
Details: B-Raf IC50 Data for compounds of Formula A; read-out: Mean IC50
Summary of the method: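 Active B-Raf (0.2 nM) phosphorylates GST-MEK1 in 20 mM MOPS pH 7.2 buffer with DTT, vanadate and 0.01% Triton X-100. The Mg/ATP cocktail (200 μM ATP, 40 mM MgCl2) is added, then incubation runs 45 min at RT. Product is captured on anti-GST plates and detected by anti-phospho-MEK1 plus Europium-anti-rabbit fluorescence, giving % inhibition per concentration.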

T1 sequence (P15056 whole entry): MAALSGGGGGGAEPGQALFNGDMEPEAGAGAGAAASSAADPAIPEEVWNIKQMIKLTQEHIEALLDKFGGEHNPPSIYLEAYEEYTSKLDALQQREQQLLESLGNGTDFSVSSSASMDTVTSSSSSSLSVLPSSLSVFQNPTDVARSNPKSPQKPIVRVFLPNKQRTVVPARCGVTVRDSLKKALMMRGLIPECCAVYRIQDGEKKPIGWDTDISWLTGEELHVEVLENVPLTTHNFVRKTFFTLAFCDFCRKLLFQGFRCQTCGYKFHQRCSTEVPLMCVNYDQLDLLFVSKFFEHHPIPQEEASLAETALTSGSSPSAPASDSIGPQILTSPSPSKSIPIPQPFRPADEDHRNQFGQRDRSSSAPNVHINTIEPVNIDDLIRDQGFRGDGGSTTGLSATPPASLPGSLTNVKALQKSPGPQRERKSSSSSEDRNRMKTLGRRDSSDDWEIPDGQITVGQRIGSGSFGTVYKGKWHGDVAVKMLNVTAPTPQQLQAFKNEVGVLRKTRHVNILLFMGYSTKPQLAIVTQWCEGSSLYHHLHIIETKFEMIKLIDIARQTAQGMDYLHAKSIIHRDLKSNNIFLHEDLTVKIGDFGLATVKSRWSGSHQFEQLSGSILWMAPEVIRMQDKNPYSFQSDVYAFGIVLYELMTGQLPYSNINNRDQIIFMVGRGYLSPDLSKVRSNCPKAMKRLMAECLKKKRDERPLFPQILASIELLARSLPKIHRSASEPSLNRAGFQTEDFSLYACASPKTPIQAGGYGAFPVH

Q: How did the IC50 turn out when `CN1C[C@@H]2C[C@H]1CN2c1ccc(-c2ccnc3c(-c4ccc(F)c5[nH]ncc45)c(-c4ccncc4)nn23)c(F)c1` [Example 107, 3-(7-fluoro-1H-indazol-4-yl)-7-{2-fluoro-4-[(1S,4S)-5-methyl-2,5-diazabicyclo[2.2.1]hept-2-yl]phenyl}-2-pyridin-4-ylpyrazolo[1,5-a]pyrimidine] was run?
A: Its IC50 is less than 0.0003 µM.

Q: Which IC50 does the source give for `c1cc(-c2c(-c3ccncc3)nn3c(-c4ccc(CN5C[C@@H]6C[C@H]5CN6)s4)ccnc23)c2cn[nH]c2c1` [Example 198, 7-{5-[(1S,4S)-2,5-diazabicyclo[2.2.1]hept-2-ylmethyl]thiophen-2-yl}-3-(1H-indazol-4-yl)-2-pyridin-4-ylpyrazolo[1,5-a]pyrimidine] here?
A: Its IC50 is 0.0036 µM.

Q: How did the IC50 turn out when `Oc1cccc(-c2c(-c3ccncc3)nn3c(-c4ccc(N[C@@H]5CN6CCC5CC6)nc4)ccnc23)c1` [Example 2, 3-(7-{6-[(3S)-1-Azabicyclo[2.2.2]oct-3-ylamino]pyridin-3-yl}-2-pyridin-4-ylpyrazolo[1,5-a]pyrimidin-3-yl)phenol] was run?
A: Its IC50 is 0.002 µM.

Q: `C[N+]1([O-])C[C@@H]2C[C@H]1CN2c1cc(F)c(-c2ccnc3c(-c4cccc5[nH]ncc45)c(-c4ccncc4)nn23)c(F)c1` (stereo partly drawn) [Example 192, 7-{2,6-difluoro-4-[(1S,4S)-5-methyl-5-oxido-2,5-diazabicyclo[2.2.1]hept-2-yl]phenyl}-3-(1H-indazol-4-yl)-2-pyridin-4-ylpyrazolo[1,5-a]pyrimidine] was tested. Which IC50 did it give?
A: The IC50 was 0.0004 µM.

Q: Which IC50 does the source give for `N#CCN1C2CCC1CC(c1ccnc3c(-c4ccc(F)c5[nH]ncc45)c(-c4ccncc4)nn13)C2` (stereo not shown) [Example 138, {3-[3-(7-fluoro-1H-indazol-4-yl)-2-pyridin-4-ylpyrazolo[1,5-a]pyrimidin-7-yl]-8-azabicyclo[3.2.1]oct-8-yl}acetonitrile] here?
A: The IC50 was 0.0004 µM.

Q: Which IC50 does the source give for `c1cc(-c2c(-c3ccncc3)nn3c2nccc3[C@H]2CC[C@@H](N3C4CCC3COC4)CC2)c2cn[nH]c2c1` (relative stereo) [Example 150, 3-(1H-indazol-4-yl)-7-[cis-4-(3-oxa-8-azabicyclo[3.2.1]oct-8-yl)cyclohexyl]-2-pyridin-4-ylpyrazolo[1,5-a]pyrimidine] here?
A: Its IC50 is 0.0399 µM.

Q: How did the IC50 turn out when `Oc1cccc(-c2c(-c3ccncc3)nn3c(-c4ccc(N5C[C@@H]6C[C@H]5CN6)cc4F)ccnc23)c1` [Example 133, 3-(7-{4-[(1S,4S)-2,5-diazabicyclo[2.2.1]hept-2-yl]-2-fluorophenyl}-2-pyridin-4-ylpyrazolo[1,5-a]pyrimidin-3-yl)phenol] was run?
A: The IC50 was less than 0.0003 µM.

Q: How did the IC50 turn out when `CCNC(=O)N1C2CCC1CC(c1ccnc3c(-c4cccc5[nH]ncc45)c(-c4ccncc4)nn13)C2` (stereo not shown) [Example 118, N-ethyl-3-[3-(1H-indazol-4-yl)-2-pyridin-4-ylpyrazolo[1,5-a]pyrimidin-7-yl]-8-azabicyclo[3.2.1]octane-8-carboxamide] was run?
A: Its IC50 is 0.0067 µM.

Q: `Clc1ccc(-c2c(-c3ccncc3)nn3c(-c4ccc(N5C[C@@H]6C[C@H]5CN6)cc4)ccnc23)c2cn[nH]c12` [Example 127, 3-(7-chloro-1H-indazol-4-yl)-7-{4-[(1S,4S)-2,5-diazabicyclo[2.2.1]hept-2-yl]phenyl}-2-pyridin-4-ylpyrazolo[1,5-a]pyrimidine] was tested. Which IC50 did it give?
A: The IC50 was 0.0313 µM.

Q: For `Cc1ccc(-c2c(-c3ccncc3)nn3c(-c4ccc(N5C[C@@H]6C[C@H]5CN6C)nc4)ccnc23)c2cn[nH]c12` [Example 40, 3-(7-Methyl-1H-indazol-4-yl)-7-(6-((1S,4S)-5-methyl-2,5-diazabicyclo[2.2.1]heptan-2-yl)pyridin-3-yl)-2-(pyridin-4-yl)pyrazolo[1,5-a]pyrimidine], which IC50 is on record?
A: Its IC50 is 0.0007 µM.

Q: How did the IC50 turn out when `CCN1C2CCC1CC(c1ccnc3c(-c4ccnc(OC)c4)c(-c4ccncc4)nn13)C2` (stereo not shown) [Example 20, 7-(8-Ethyl-8-azabicyclo[3.2.1]octan-3-yl)-3-(2-methoxypyridin-4-yl)-2-(pyridin-4-yl)pyrazolo[1,5-a]pyrimidine] was run?
A: The IC50 was 0.835 µM.

Q: For `CN1C[C@@H]2CC[C@H]1CN2c1ccc(-c2ccnc3c(-c4cccc5[nH]ncc45)c(-c4ccncc4)nn23)c(F)c1` [Example 173, 7-{2-fluoro-4-[(1S,4S)-5-methyl-2,5-diazabicyclo[2.2.2]oct-2-yl]phenyl}-3-(1H-indazol-4-yl)-2-pyridin-4-ylpyrazolo[1,5-a]pyrimidine], which IC50 is on record?
A: The IC50 was 0.0004 µM.

Q: For `c1cc(-c2c(-c3ccncc3)nn3c2nccc3[C@H]2CC[C@H](N3CC4CCC(C3)O4)CC2)c2cn[nH]c2c1` (relative stereo) [Example 153, 3-(1H-indazol-4-yl)-7-[trans-4-(8-oxa-3-azabicyclo[3.2.1]oct-3-yl)cyclohexyl]-2-pyridin-4-ylpyrazolo[1,5-a]pyrimidine], which IC50 is on record?
A: The IC50 was 0.0037 µM.

Q: With `CC(C)N1C2CCC1CC(c1ccnc3c(-c4cccc5[nH]ncc45)c(-c4ccncc4)nn13)C2` (stereo not shown) [Example 113, 3-(1H-indazol-4-yl)-7-(8-isopropyl-8-azabicyclo[3.2.1]oct-3-yl)-2-pyridin-4-ylpyrazolo[1,5-a]pyrimidine] as the compound, how does the IC50 read?
A: The IC50 was 0.067 µM.

Q: For `CCN1C2CCC1CC(c1ccnc3c(-c4ccc5cc[nH]c5c4)c(-c4ccncc4)nn13)C2` (stereo not shown) [Example 87, 7-(8-Ethyl-8-azabicyclo[3.2.1]oct-3-yl)-3-(1H-indol-6-yl)-2-pyridin-4-ylpyrazolo[1,5-a]pyrimidine], which IC50 is on record?
A: Its IC50 is 0.032 µM.

Q: Which IC50 does the source give for `CCN1C2CCC1CC(c1ccnc3c(-c4cccc5[nH]ncc45)c(-c4ccncc4)nn13)C2` (stereo not shown) [Example 90, 7-(8-Ethyl-8-azabicyclo[3.2.1]octan-3-yl)-3-(1H-indazol-4-yl)-2-(pyridin-4-yl)pyrazolo[1,5-a]pyrimidine] here?
A: Its IC50 is 0.046 µM.

Q: Which IC50 does the source give for `COc1cccc(-c2c(-c3ccncc3)nn3c(C4CC5CCC(C4)N5)ccnc23)c1` (stereo not shown) [Example 19, 7-(8-Azabicyclo[3.2.1]oct-3-yl)-3-(3-methoxyphenyl)-2-pyridin-4-ylpyrazolo[1,5-a]pyrimidine] here?
A: Its IC50 is 0.071 µM.

Q: For `c1cc(-c2c(-c3ccncc3)nn3c2nccc3[C@H]2CC[C@@H](N3C[C@@H]4C[C@H]3CO4)CC2)c2cn[nH]c2c1` [Example 154, 3-(1H-indazol-4-yl)-7-{cis-4-[(1S,4S)-2-oxa-5-azabicyclo[2.2.1]hept-5-yl]cyclohexyl}-2-pyridin-4-ylpyrazolo[1,5-a]pyrimidine], which IC50 is on record?
A: The IC50 was 0.0114 µM.

Q: How did the IC50 turn out when `CN1C[C@@H]2C[C@H]1CN2c1ccc(-c2ccnc3c(-c4cccc(C(N)=O)c4)c(-c4ccncc4)nn23)cn1` [Example 43, 3-(7-(6-((1S,4S)-5-Methyl-2,5-diazabicyclo[2.2.1]heptan-2-yl)pyridin-3-yl)-2-(pyridin-4-yl)pyrazolo[1,5-a]pyrimidin-3-yl)benzamide] was run?
A: The IC50 was 0.134 µM.

Q: How did the IC50 turn out when `c1cc(-c2c(-c3ccncc3)nn3c(-c4ccc(N5C[C@@H]6C[C@H]5CN6)c5ccccc45)ccnc23)c2cn[nH]c2c1` [Example 158, 7-{4-[(1S,4S)-2,5-diazabicyclo[2.2.1]hept-2-yl]-1-naphthyl}-3-(1H-indazol-4-yl)-2-pyridin-4-ylpyrazolo[1,5-a]pyrimidine] was run?
A: Its IC50 is 0.0209 µM.

Q: For `CC(C)(C)OC(=O)N1C[C@@H]2C[C@H]1CN2Cc1ccc(-c2ccnc3c(-c4cccc5[nH]ncc45)c(-c4ccncc4)nn23)cc1` [Example 203, tert-butyl (1S,4S)-5-{4-[3-(1H-indazol-4-yl)-2-pyridin-4-ylpyrazolo[1,5-a]pyrimidin-7-yl]benzyl}-2,5-diazabicyclo[2.2.1]heptane-2-carboxylate], which IC50 is on record?
A: Its IC50 is 0.012 µM.

Q: For `Fc1ccc(-c2c(-c3ccncc3)nn3c2nccc3[C@H]2CC[C@H](N3C4CCC3COC4)CC2)c2cn[nH]c12` (relative stereo) [Example 182, 3-(7-fluoro-1H-indazol-4-yl)-7-[trans-4-(3-oxa-8-azabicyclo[3.2.1]oct-8-yl)cyclohexyl]-2-pyridin-4-ylpyrazolo[1,5-a]pyrimidine], which IC50 is on record?
A: Its IC50 is 0.0013 µM.

Q: `CCOC(=O)N1C2CCC1CC(c1ccnc3c(-c4ccc(F)c5[nH]ncc45)c(-c4ccncc4)nn13)C2` (stereo not shown) [Example 81, Ethyl 3-[3-(7-fluoro-1H-indazol-4-yl)-2-pyridin-4-ylpyrazolo[1,5-a]pyrimidin-7-yl]-8-azabicyclo[3.2.1]octane-8-carboxylate, trifluoroacetate salt] was tested. Which IC50 did it give?
A: The IC50 was 0.0004 µM.

Q: Which IC50 does the source give for `C1=C(c2ccnc3c(-c4cccc5[nH]ncc45)c(-c4ccncc4)nn23)CCC2(C1)OCCO2` [Example 191, 7-(1,4-dioxaspiro[4.5]dec-7-en-8-yl)-3-(1H-indazol-4-yl)-2-pyridin-4-ylpyrazolo[1,5-a]pyrimidine] here?
A: Its IC50 is 0.0561 µM.

Q: `CCOC(=O)N1C2CCC1CC(c1ccnc3c(-c4cccc(-c5nnco5)c4)c(-c4ccncc4)nn13)C2` (stereo not shown) [Example 91, Ethyl 3-(3-(3-(1,3,4-oxadiazol-2-yl)phenyl)-2-(pyridin-4-yl)pyrazolo[1,5-a]pyrimidin-7-yl)-8-azabicyclo[3.2.1]octane-8-carboxylate] was tested. Which IC50 did it give?
A: The IC50 was 0.162 µM.

Q: Which IC50 does the source give for `CN1C[C@@H]2C[C@H]1CN2c1ccc(-c2ccnc3c(-c4cccc(O)c4)c(-c4ccncc4)nn23)cc1` [Example 30, 3-{7-[4-((1S,4S)-5-Methyl-2,5-diaza-bicyclo[2.2.1]hept-2-yl)-phenyl]-2-pyridin-4-yl-pyrazolo[1,5-a]pyrimidin-3-yl}-phenol] here?
A: The IC50 was less than 0.003 µM.

Q: `CC(C)(C)OC(=O)N1C[C@@H]2C[C@H]1CN2c1ccc(-c2ccnc3c(-c4ccc(Cl)c5[nH]ncc45)c(-c4ccncc4)nn23)cc1` [Example 125, tert-butyl (1S,4S)-5-{4-[3-(7-chloro-1H-indazol-4-yl)-2-pyridin-4-ylpyrazolo[1,5-a]pyrimidin-7-yl]phenyl}-2,5-diazabicyclo[2.2.1]heptane-2-carboxylate] was tested. Which IC50 did it give?
A: The IC50 was 0.0449 µM.

Q: Which IC50 does the source give for `Fc1ccc(-c2c(-c3ccncc3)nn3c2nccc3[C@H]2CC[C@H](N3C[C@@H]4C[C@H]3CO4)CC2)c2cn[nH]c12` [Example 178, 3-(7-fluoro-1H-indazol-4-yl)-7-{trans-4-[(1S,4S)-2-oxa-5-azabicyclo[2.2.1]hept-5-yl]cyclohexyl}-2-pyridin-4-ylpyrazolo[1,5-a]pyrimidine] here?
A: The IC50 was 0.0067 µM.
